From US20230233430A1, “POLYOL ESTERS FROM BIOBASED FEEDSTOCKS FOR USE AS EMOLLIENT IN PERSONAL CARE APPLICATIONS” (priority 2020, published 2023)

Test: Decomposition temperature by thermogravimetric analyser (TGA)
Format: physicochemical
Details: reactants
Experimental: The decomposition temperature of the reactants and polyol ester of different grades (PE25, PE50 and PE100) were determined using a thermogravimetric analyser (TGA). TGA is a method of thermal analysis by measuring the changes in the mass of a sample over increasing temperatures.

Compound	Decomposition temperature [°C]	Amount of sample decomposed within the temperature range [wt. %]
CCCCCCCC(=O)O [Caprylic acid]	150.9 to 193.3	–
OCC(O)CO [Glycerin]	178.7 to 220.9	–
O=C(O)CCCCCCCCC(=O)O [Sebacic acid]	247.9 to 283.9	95.24
